Key:
KP4 = assay: Cell viability assay (CellTiter Glo), pancreatic ductal adenocarcinoma KP4; format: cell-based, human; conditions: Homo sapiens, KP-4, 96 h, pancreatic cancer cell line KP4, 96 hours, CellTiter Glo; read-out: IC50 μM KP4
Method in brief: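 Luminescent ATP readout (CellTiter Glo) after 96 h compound exposure, normalized to DMSO-treated cells as maximum. Compounds ran in duplicate, nine 3-fold steps from 30 μM down to 4.6 nM, final DMSO ≤0.25%; KP4 plated overnight at 1,000–10,000 cells/well. Outputs: IC50, relative IC50 or % top inhibition.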

[1] = Whole blood stability, mouse; format: in vitro ADME
Text: (§1) The results of the assay on stability in blood and IC50 values for pancreatic cancer cell line KP4 are given below in Table 24.

[2] = Whole blood stability, human; format: in vitro ADME
Text: as §1

Row | Compound | IC50 (KP4) [µM] | Whole Blood Stability % Remaining at 37° C. Mouse ([1]; 0 min) [%] | Whole Blood Stability % Remaining at 37° C. Mouse ([1]; 30 min) [%] | Whole Blood Stability % Remaining at 37° C. Mouse ([1]; 60 min) [%] | Whole Blood Stability % Remaining at 37° C. Human ([2]; 0 min) [%] | Whole Blood Stability % Remaining at 37° C. Human ([2]; 30 min) [%] | Whole Blood Stability % Remaining at 37° C. Human ([2]; 60 min) [%]
1 | COC(=O)[C@H]1Cc2c([nH]c3ccccc23)[C@H](c2ccc(C(=O)OCC3CCC3)cc2)N1C(=O)CCl [Compound 85] | < 0.01 | 100.0 | 0.0 | 0.0 | 100.0 | 73.5 | 54.4
2 | COC(=O)[C@H]1Cc2c([nH]c3ccccc23)[C@H](c2ccc(C(=O)OCC3CCCC3)cc2)N1C(=O)CCl [Compound 86] | < 0.01 | 100.0 | 0.0 | 0.0 | 100.0 | 78.3 | 49.6
3 | COC(=O)[C@H]1Cc2c([nH]c3ccc(Br)cc23)[C@H](c2ccc(C(=O)OCC3CC3)cc2)N1C(=O)CCl [Compound 87] | < 0.01 | 100.0 | 0.0 | 0.0 | 100.0 | 63.2 | 32.2
4 | COC(=O)c1ccc([C@H]2c3[nH]c4ccc(Br)cc4c3C[C@H](C(=O)OC)N2C(=O)CCl)cc1 [Compound 88] | < 0.01 | 100.0 | 0.0 | 0.0 | 100.0 | 56.4 | 27.0
5 | COC(=O)[C@H]1Cc2c([nH]c3ccccc23)[C@H](c2ccc(C(=O)OCC3CCCCC3)cc2)N1C(=O)CCl [Compound 89] | < 0.01 | 100.0 | 0.0 | 0.0 | 100.0 | 84.8 | 91.2
6 | COC(=O)c1ccc([C@H]2c3[nH]c4ccc(F)cc4c3C[C@H](C(=O)OC)N2C(=O)CCl)cc1 [Compound 91] | < 0.01 | 100.0 | 0.0 | 0.0 | 100.0 | 65.8 | 47.2
7 | COC(=O)c1ccc([C@@H]2c3[nH]c4ccc(F)cc4c3C[C@H](C(=O)OC)N2C(=O)CCl)cc1 [Compound 92] | 0.1 to 0.5 | 100.0 | 0.0 | 0.0 | 100.0 | 40.2 | 21.0
8 | COC(=O)c1ccc([C@H]2c3[nH]c4ccc(Cl)cc4c3C[C@H](C(=O)OC)N2C(=O)CCl)cc1 [Compound 93] | 0.1 to 0.5 | 100.0 | 0.0 | 0.0 | 100.0 | 66.3 | 44.9
9 | COC(=O)c1ccc([C@@H]2c3[nH]c4ccc(Cl)cc4c3C[C@H](C(=O)OC)N2C(=O)CCl)cc1 [Compound 94] | < 0.01 | 100.0 | 0.0 | 0.0 | 100.0 | 50.3 | 27.1
10 | COC(=O)c1ccc([C@H]2c3[nH]c4cccc(Br)c4c3C[C@H](C(=O)OC)N2C(=O)CCl)cc1 [Compound 95] | 0.01 to 0.1 | 100.0 | 1.5 | 0.0 | 100.0 | 109.5 | 85.6
11 | COC(=O)c1ccc([C@H]2c3[nH]c4cc(Br)ccc4c3C[C@H](C(=O)OC)N2C(=O)CCl)cc1 [Compound 96] | < 0.01 | 100.0 | 0.0 | 0.0 | 100.0 | 29.1 | 10.9
12 | COC(=O)c1ccc([C@H]2c3[nH]c4c(Br)cccc4c3C[C@H](C(=O)OC)N2C(=O)CCl)cc1 [Compound 97] | < 0.01 | 100.0 | 0.0 | 0.0 | 100.0 | 69.6 | 44.1
13 | CC[C@H]1Cc2c([nH]c3ccccc23)[C@H](c2ccc(C(=O)OC)cc2)N1C(=O)CCl [Compound 98] | < 0.01 | 100.0 | 0.0 | 0.0 | 100.0 | 79.2 | 54.8
14 | CC[C@H]1Cc2c([nH]c3ccccc23)[C@@H](c2ccc(C(=O)OC)cc2)N1C(=O)CCl [Compound 99] | > 1 | 100.0 | 4.0 | 0.0 | 100.0 | 94.5 | 67.9
15 | COC(=O)c1cccc([C@H]2c3[nH]c4ccccc4c3C[C@H](C(=O)OC)N2C(=O)CCl)c1 [Compound 100] | < 0.01 | 100.0 | 35.8 | 10.8 | 100.0 | 60.9 | 44.3
16 | C[C@H]1Cc2c([nH]c3ccccc23)[C@H](c2ccc(S(=O)(=O)N[C@]34CC5C[C@H](C[C@H](C5)C3)C4)cc2)N1C(=O)CCl [Compound 101] | < 0.01 | 100.0 | 82.2 | 113.2 | 100.0 | 46.8 | 29.8

Source: US11098040B2, “Compounds and methods of use” (Ferro Therapeutics, Inc., priority 2018, dated 2021)
